Holding throughout (assay): DTP human tumour cell line panel, 48 h
For assay [1], the system named is HCC-2998 colon.
Assay [2] deals with HCT-116 colon.
The test system of assay [3] is HS 578T breast.
The test system of assay [4] is MDA-N.
Assay [5] concerns OVCAR-3 ovarian.
The test system of assay [6] is SF-268 CNS.
For assay [7], the system named is SK-MEL-2 melanoma.
Assay [8] has as its system SNB-75 CNS.
Assay [9] concerns UACC-257 melanoma.
For assay [10], the system named is UACC-62 melanoma.
For assay [11], the system named is SK-MEL-28 melanoma.

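Interpolation was linear, between the two tested concentrations surrounding the appropriate level; five concentrations were tested over 48 hours in 96-well plates. Definition used: TGI = concentration required for complete inhibition of growth.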 Where only a bound is given, the exact number is not on record here.

As a reminder, the TGI is the concentration at which net growth stops. A lower TGI goes with more potent growth arrest. Turning to `Cn1c(=O)c2c(no[n+]2[O-])c2ccccc21`, the TGI turned out to be 27.3 µM in assay [1]; 30.2 µM in assay [2]; 62.2 µM in assay [3]; 87.2 µM in assay [4]; 48.4 µM in [5]; 59.2 µM in assay [6]. Besides, the TGI in assay [7] came to 28.7 µM; in [8], 35.9 µM; in assay [9], 33.2 µM; in assay [10], 31.8 µM.
Turning to `CC(=O)Nc1ccc(-c2nc3cc(Cl)ccc3o2)cc1`, the TGI in assay [1], in assay [2], in assay [3], in assay [4], in assay [5] and in [6] was above 50 µM throughout. Besides, the TGI in [7], in assay [11], in [8], in [9] and in assay [10] was above 50 µM in each case.
For the molecule `COc1ccc(CN(Cc2ccc(OC)cc2)C(=O)CC2(O)C=CCC2)cc1` (configuration not stated), the TGI in assay [1], in [2], in [3], in [4], in [5] and in assay [7] was above 100 µM throughout. Besides, the TGI in [11], in assay [8], in assay [9] and in assay [10] was above 100 µM each time.
As to `CSc1ncnc2c1cnn2CCCCO`, the TGI in assay [1], in assay [2], in [3], in [4], in assay [5] and in assay [6] was above 100 µM throughout. For the same molecule, the TGI in assay [7], in assay [11], in assay [9] and in assay [10] was above 100 µM in each case.
Turning to `O=C(CCc1cc(O)cc(O)c1)NCCc1cc(O)cc(O)c1`, the TGI in [1], in [2], in assay [3], in [4], in assay [5] and in assay [6] was above 100 µM each time. Also, the TGI in assay [7], in assay [11], in assay [8], in assay [9] and in [10] was above 100 µM each time.
With `N#CC1(C#N)C2CCCCC23OC(=N)C1(C#N)C(c1ccccc1)O3` (configuration not stated), the total growth inhibition concentration (TGI) in assay [1] came out at 29 µM; in [2] it was 41.4 µM; in assay [3], 4.76 µM; in [4], 27.9 µM; in [5], 28.2 µM; in [6], 18.1 µM. In addition, the TGI in assay [7] is 43 µM; in assay [8] it was 11.7 µM; in [9] it was 37.3 µM; in assay [10], 49.4 µM.
For the molecule `CC(=O)OC1O[C@@H](C(C)(C)O)CC[C@@H]1[C@H]1CC[C@@]2(C)C3=C(CC[C@]12C)[C@@]1(C)C[C@@H](OC(=O)CC(C)(O)CC(=O)O)[C@H](OC(C)=O)C(C)(C)C1CC3` (some centres not stated), the TGI in assay [1] was determined as 36.8 µM; in assay [3], 42.3 µM; in assay [4] it was 34.4 µM; in assay [5] it was 32.6 µM; in [7], 38.7 µM; in assay [11], 30.8 µM. Moreover, the values for the TGI in [9] and in [10] were 31.7 µM and 72.4 µM, respectively.
In the case of `Cc1ccc(-c2c3c(n(C4OC(CO)C(O)C(O)C4O)c(=S)c2C#N)CC(C)(C)CC3=O)cc1` (configuration not stated), the TGI in assay [1], in assay [2], in assay [3], in [4], in assay [5] and in assay [6] was above 100 µM each time. The TGI in assay [7], in [11], in assay [8], in [9] and in assay [10] was above 100 µM throughout.
`COc1ccc(-c2c(C#N)c(O)n(NS(=O)(=O)c3ccc(C)cc3)c(=O)c2C#N)cc1`: the TGI in [1], in assay [2], in [3], in assay [4], in assay [6] and in [7] was above 100 µM throughout. In addition, the TGI in assay [11], in assay [8], in assay [9] and in [10] was above 100 µM each time.
For the molecule `O=C(/C=C/C=C/c1ccccc1)c1ccc2c(c1)CCCC2`, the TGI in assay [1] was 63.3 µM; in assay [2] it was above 100 µM; in assay [3], 30.4 µM; in assay [4] it was 62.8 µM; in assay [5], above 100 µM; in [6] it was 42.6 µM. The TGI in assay [7], in assay [11], in assay [9] and in [10] was above 100 µM in each case.
For the molecule `NCCCNCCCCNCCCN`, the TGI is above 76.7 µM in assay [1]; 8.78 µM in assay [2]; 98 µM in assay [3]; 41.5 µM in assay [4]; above 20.1 µM in assay [5]; above 92.9 µM in [6]. Besides, the TGI in [7], in [8], in assay [9] and in assay [10] was above 100 µM in each case.
Consider `O=c1c2c(-c3ccccc3)onc2n(-c2ccccc2)c(=O)n1-c1ccccc1`, for which the TGI was 33.1 µM in [1]; above 100 µM in assay [2]; 89.8 µM in [3]; above 100 µM in [4]; 38.6 µM in assay [5]; above 100 µM in assay [6]. Further, the TGI in assay [7] worked out at 25 µM; in assay [8], 84.2 µM; in assay [9] it was 53 µM; in assay [10], 32 µM.
In the case of `NC12Oc3cc(O)cc(O)c3C1(c1ccc(Cl)cc1)c1c(O)cc(O)cc1O2` (configuration not stated), the TGI in assay [1], in assay [2], in [3], in [4], in assay [5] and in assay [6] was above 100 µM in each case. Also, the TGI in [7], in [11], in assay [8], in assay [9] and in assay [10] was above 100 µM in each case.
